{"source": "patent US9862690B2", "about": "“Treatment of pulmonary and other conditions” (University of Pittsburgh—of the Commonwealth System of …, priority 2013, dated 2018)", "key": {"[1]": {"system": "pulmonary fibrosis in mice", "assay": "Pulmonary fibrosis model (bleomycin, asbestos or X-ray induced)", "type": "in vivo", "experimental": "Induction of pulmonary fibrosis by intratracheal injection of bleomycin sulphate (BLM; 0.05 units) was followed by nebulization of PB141 (25 mg/kg) or vehicle (saline) and delivery to cage air via a micropump nebulizer. After 21 days lung samples were obtained. (A) Lung hydroxyproline content. (B) Lung fibrinolysis. (C) Lung collagen content. (D) Lung TGF-β content. Data are representative of one of two independent experiments with n=5-7 mice per group; ** p<0.01, *** p<0.001.\nLung fibrosis was induced by methods previously reported in literature of the relevant art. Briefly, 50 μl of bleomycin sulfate in saline or 0.1 mg of NIEHS crocidolite asbestos (N 10 μm in length) was administered intratracheally into anesthetized mice. In some experiments fibrosis was induced by the following standard X-ray exposure procedure: Anesthetized mice at the age of 10-12 weeks were immobilized, with a lead shield excluding all but the thoracic cavity. Animals were then irradiated with a single dose of 14.5 Gy from a cesium source (J. L. Shepherd and Associates, San Fernando, Calif.) at a dose rate of 1.65 Gy/min LD50 for C57BL/6J mice is 14.5 Gy. At this dose, survival is sufficient to permit adequate numbers of animals for long-term analyses.\nAfter induction of pulmonary fibrosis using the methods as described above, PB141 (25 mg/kg) dissolved in normal saline was delivered for 30 min via a micropump nebulizer (Buxco Research Systems, Wilmington, N.C.) fitted at the chamber inlet. After 21 days, bronchoalveolar lavage fluid (BALF) samples were obtained and analyzed for cellular infiltration by hemocytometer and differential staining of cells. Pulmonary fibrosis was assessed from lung homogenates by estimating total lung collagen content using the Sircol Collagen Assay kit (Biocolor) and hydroxyproline content using a hydroxyproline assay kit (BioVision, Mountain View, Calif.) according to the manufacturer's instructions. Lung histology sections were assessed by morphometry, hematoxylin and eosin (H&E) staining, and Masson's trichrome staining."}, "Nrf2": {"system": "Nrf2", "assay": "Nrf2 DNA-binding activity and nuclear concentration in BEAS-2B cells", "type": "cell-based", "conditions": "different concentrations, 24 h", "experimental": "BEAS-2B cells were treated with varying concentrations of PB141 for 24 h, after which (A) Nrf2 activity was measured or (C) nuclear Nrf2 concentration was determined by Western blotting. (B) In other experiments cells were pretreated with varying concentrations of PB141 for 1 h, then with LPS (500 ng/ml) for 6 h. Cells were then isolated and activity of NF-κB was measured.\nBEAS-2B cells were cultured in Dulbecco's modified Eagle's medium (DMEM) containing 10% heat-inactivated fetal bovine serum, penicillin, and streptomycin (100 IU/ml). Monolayer cultures were treated with different concentrations of PB141 for 24 h. Cells were then isolated and the DNA-binding activity of the antioxidant transcription factor Nrf2 was determined. The nuclear concentration of Nrf2 was also determined by Western blotting. […] In some experiments monolayer cultures were deprived of serum for 24 h, pre-treated with different concentrations of PB141 for 1 h, then exposed to LPS for 6 h. Nuclear proteins were prepared and were used to quantify DNA-binding activity of the p65 subunit of NF-κB."}}}
{"smiles": "CC(=O)N[C@@H](CSC(CC(=O)CC(SC[C@H](NC(C)=O)C(=O)O)c1cnccn1)c1cnccn1)C(=O)O", "note": "(stereo partly shown) [PB141]", "values": [{"measurement": "Collagen production", "setting": "[1]; 25 mg/kg nebulized, 21 days", "result": "effectively prevented"}, {"measurement": "Inflammatory cell infiltration", "setting": "[1]; 25 mg/kg nebulized, 21 days", "result": "effectively prevented"}, {"measurement": "Myofibroblast differentiation", "setting": "[1]; 25 mg/kg nebulized, 21 days", "result": "effectively prevented"}, {"measurement": "Tolerability of the solution", "setting": "[1]; even with intratracheal administration", "result": "well tolerated"}, {"measurement": "Pulmonary fibrosis", "setting": "[1]; repeated pulmonary dosing, 25 mg/kg", "result": "significantly reduced"}, {"measurement": "DNA-binding activity of Nrf2", "setting": "Nrf2", "result": "increased both nuclear localization and DNA-binding activity of Nrf2 in a concentration-dependent manner"}, {"measurement": "Nuclear localization of Nrf2 (Western blotting)", "setting": "Nrf2", "result": "increased both nuclear localization and DNA-binding activity of Nrf2 in a concentration-dependent manner"}]}
